Test results reported in patent US6670363B1, “Azole compounds as therapeutic agents for fungal infections” (Ranbaxy Laboratories Limited, priority 2000, dated 2003).
≈ marks a conversion by molar mass, not a printed value.

Legend:
A. fumigatus s 1008 = test: In vitro MIC, NCCLS M38P broth method (RPMI 1640/MOPS pH7), Aspergillus fumigatus; format: cell-based; settings: for MIC, A. fumigatus 1008: A. fumigatus strain 1008
Candida = test: In vitro MIC, NCCLS M27A, Candida species; format: cell-based; parameters: MIC, Candida albicans 1.549 / MIC, Candida albicans Y-01-19 / MIC, C. krusei 766-1 / MIC, C. krusei Q. C / MIC, Candida tropicalis ATCC / MIC, C. glabrata 90030: unit not given beside the values; MIC, Candida albicans A 26 / MIC, C. parapsilosis Q. C.: unit not given here; settings: for MIC, C. glabrata 90030: C. glabrata strain 90030; for MIC, C. krusei 766-1: C. krusei strain 766-1; for MIC, C. krusei Q. C: C. krusei strain Q. C; for MIC, C. parapsilosis Q. C.: C. parapsilosis strain Q. C.; for MIC, Candida albicans 1.549: Candida albicans strain 1.549; for MIC, Candida albicans A 26: Candida albicans strain A 26; for MIC, Candida albicans Y-01-19: Candida albicans strain Y-01-19
Cryptococcus neoformans = test: In vitro MIC, NCCLS M27A, Cryptococcus neoformans; format: cell-based; parameters: MIC, C. neoformans I: unit not given beside the values; MIC, C. neoformans M 106: unit not given here; settings: for MIC, C. neoformans I: C. neoformans strain I; for MIC, C. neoformans M 106: C. neoformans strain M 106
Histoplasma capsulatum = format: cell-based

Structure (SMILES)	melting point [°C]	MIC, A. fumigatus 1008 (A. fumigatus s 1008)	MIC, C. glabrata 90030 (Candida)	MIC, C. krusei 766-1 (Candida)	MIC, C. krusei Q. C (Candida)	MIC, C. parapsilosis Q. C. (Candida)	MIC, Candida albicans 1.549 (Candida)	MIC, Candida albicans A 26 (Candida)	MIC, Candida albicans Y-01-19 (Candida)	MIC, Candida tropicalis ATCC (Candida)	MIC, C. neoformans I (Cryptococcus neoformans)	MIC, C. neoformans M 106 (Cryptococcus neoformans)	MIC, H. capsulatum (Histoplasma capsulatum) [µg/mL]	MIC (υg/ml) (A. fumigatus s 1008) (A. fumigatus s 1008) [µg/mL]
COc1ccc(N2CCN(c3ccc(-n4cnn(CC(O)(Cn5cncn5)c5ccc(F)cc5F)c4=O)cc3)CC2)cc1 (centres unmarked) [Compound 41, 2-[2-(2,4-Difluorophenyl)-2-hydroxy-3-(1H-1,2,4-triazol-1-yl)propyl]-4-{4-[4-(4-methoxyphenyl)-1-piperazinyl]phenyl}-3-(2H,4H)-1,2,4-triazolone]	183 to 186	6.25	0.80	1.56	0.40	<0.02	0.05	<0.02	0.10	3.12	0.10	0.40	< 0.02	–
Nc1ccc(N2CCN(c3ccc(-n4cnn(CC(O)(Cn5cncn5)c5ccc(F)cc5F)c4=O)cc3)CC2)c(N)c1 (centres unmarked) [Compound 38, 2-[2-(2,4-Difluorophenyl)-2-hydroxy-3-(1H-1,2,4-triazol-1-yl)propyl]-4-{4-[4-(2,4-diaminophenyl)-1-piperazinyl]phenyl}-3-(2H,4H)-1,2,4-triazolone]	215 to 222	>16	>16	>16	>16	>16	>16	>16	>16	>16	>16	>16	> 16	–
O=c1n(-c2ccc(N3CCN(c4ccc(CCO)cc4)CC3)cc2)cnn1CC(O)(Cn1cncn1)c1ccc(F)cc1F (centres unmarked) [Compound 95, 2-[2-(2,4-Difluorophenyl)-2-hydroxy-3-(1H-1,2,4-triazol-1-yl)propyl]-4-{4-[4-(4-(2-hydroxyethyl)phenyl)-1-piperazinyl]phenyl}-3-(2H,4H)-1,2,4-triazolone]	114 to 115	–	–	–	–	–	–	–	–	–	–	–	–	>12.5
O=c1n(-c2ccc(N3CCN(c4cc(Cl)cc(Cl)c4)CC3)cc2)cnn1CC(O)(Cn1cncn1)c1ccc(F)cc1F (centres unmarked) [Compound 61, 2-[2-(2,4-Difluorophenyl)-2-hydroxy-3-(1H-1,2,4-triazol-1-yl)propyl]-4-{4-[4-(3,5-dichlorophenyl)-1-piperazinyl]phenyl}-3-(2H,4H)-1,2,4-triazolone]	222 to 225	>16	0.50	0.50	0.25	<0.03	0.25	<0.03	0.12	<0.03	<0.03	<0.03	< 0.03	–
O=c1n(-c2ccc(N3CCN(c4ccccc4F)CC3)cc2)cnn1CC(O)(Cn1cncn1)c1ccc(F)cc1F (centres unmarked) [Compound 62, 2-[2-(2,4-Difluorophenyl)-2-hydroxy-3-(1H-1,2,4-triazol-1-yl)propyl]-4-{4-[4-(2-fluorophenyl)-1-piperazinyl]phenyl}-3-(2H,4H)-1,2,4-triazolone]	74 to 76	16.00	1.00	2.00	0.50	<0.03	4.00	<0.03	0.50	<0.03	<0.03	0.12	< 0.03	–
O=c1n(-c2ccc(N3CCN(c4ccc(Cl)c(Cl)c4)CC3)cc2)cnn1CC(O)(Cn1cncn1)c1ccc(F)cc1F (centres unmarked) [Compound 37, 2-[2-(2,4-Difluorophenyl)-2-hydroxy-3-(1H-1,2,4-triazol-1-yl)propyl]-4-{4-[4-(3,4-dichlorophenyl)-1-piperazinyl]phenyl}-3-(2H,4H)-1,2,4-triazolone]	194 to 196	>16	0.12	0.25	0.06	<0.03	0.06	<0.03	0.06	<0.03	<0.03	<0.03	< 0.03	–
COC(=O)Cc1ccc(N2CCN(c3ccc(-n4cnn(CC(O)(Cn5cncn5)c5ccc(F)cc5F)c4=O)cc3)CC2)cc1 (centres unmarked) [Compound 93, 2-[2-(2,4-Difluorophenyl)-2-hydroxy-3-(1H-1,2,4-triazol-1-yl)propyl]-4-{4-[4-(4-(2-methoxy-2-oxoethyl)phenyl)-1-piperazinyl]phenyl}-3-(2H,4H)-1,2,4-triazolone]	66 to 69	–	–	–	–	–	–	–	–	–	–	–	–	>12.5
O=C(O)CCc1ccc(N2CCN(c3ccc(-n4cnn(CC(O)(Cn5cncn5)c5ccc(F)cc5F)c4=O)cc3)CC2)cc1 (centres unmarked) [Compound 94, 2-[2-(2,4-Difluorophenyl)-2-hydroxy-3-(1H-1,2,4-triazol-1-yl)propyl]-4-{4-[4-(4-(carboxyethyl)-phenyl)-1-piperazinyl]phenyl}-3-(2H,4H)-1,2,4-triazolone]	235 to 239	–	–	–	–	–	–	–	–	–	–	–	–	>12.5
C[C@@H](n1ncn(-c2ccc(N3CCN(c4ccc([N+](=O)[O-])cc4[N+](=O)[O-])CC3)cc2)c1=O)[C@@](O)(Cn1cncn1)c1ccc(F)cc1F [Compound 4, 2-{[1R2S/1S2R]-2-(2,4-Difluorophenyl)-2-hydroxy-1-methyl-3-(1H-1,2,4-triazol-1-yl)propyl}-4-{4-[4-(2,4-dinitrophenyl)-1-piperazinyl]phenyl}-3-(2H,4H)-1,2,4-triazolone]	–	>16	2.00	>16	>16	0.25	4.00	<0.03	>16	<0.03	0.25	1.00	0.5 (≈ 0.755 µM)	–
C[C@@H](n1ncn(-c2ccc(N3CCN(c4ccccc4F)CC3)cc2)c1=O)[C@](O)(Cn1cncn1)c1ccc(F)cc1F [Compound 25, 2-{[1R2R/1S2S]-2-(2,4-Difluorophenyl)-2-hydroxy-1-methyl-3-(1H-1,2,4-triazol-1-yl)propyl}-4-{4-[4-(2-fluorophenyl)-1-piperazinyl]phenyl}-3-(2H,4H)-1,2,4-triazolone]	–	0.50	0.12	0.12	0.06	<0.03	0.06	<0.03	0.12	<0.03	<0.03	<0.03	0.06 (≈ 0.102 µM)	–
CCc1ccccc1N1CCN(c2ccc(-n3c(C)nn([C@H](C)[C@](O)(Cn4cncn4)c4ccc(F)cc4F)c3=O)cc2)CC1 [Compound 31, 2-{[1R2R/1S2S]-2-(2,4-Difluorophenyl)-2-hydroxy-1-methyl-3-(1H-1,2,4-triazol-1-yl)propyl}-4-{4-[4-(2-ethylphenyl)-1-piperazinyl]phenyl}-3-(2H,4H)-5-methyl-1,2,4-triazolone]	–	1.00	0.50	0.50	0.12	<0.03	>16	<0.03	0.12	<0.03	<0.03	<0.03	0.06 (≈ 0.0976 µM)	–
Cc1nn(CC(O)(Cn2cncn2)c2ccc(F)cc2F)c(=O)n1-c1ccc(N2CCN(c3ccc(F)cc3)CC2)cc1 (centres unmarked) [Compound 36, 2-[2-(2,4-Difluorophenyl)-2-hydroxy-3-(1H-1,2,4-triazol-1-yl)propyl]-4-{4-[4-(4-fluorophenyl)-1-piperazinyl]phenyl}-3-(2H,4H)-5-methyl-1,2,4-triazolone]	–	>12.5	3.12	3.12	1.56	<0.02	0.20	<0.02	0.40	<0.02	0.20	0.40	< 0.02	–
COc1ccc(N2CCN(c3ccc(-n4cnn([C@H](C)[C@@](O)(Cn5cncn5)c5ccc(F)cc5F)c4=O)cc3)CC2)cc1 [Compound 14, 2-{[1R2S/1S2R]-2-(2,4-Difluorophenyl)-2-hydroxy-1-methyl-3-(1H-1,2,4-triazol-1-yl)propyl}-4-{4-[4-(4-methoxyphenyl)-1-piperazinyl]phenyl}-3-(2H,4H)-1,2,4-triazolone]	–	>16	2.00	>16	16.0	0.06	2.00	<0.03	2.00	<0.03	0.50	<0.03	0.12 (≈ 0.199 µM)	–
